According to PMC8709211, “Improving Membrane Activity and Cargo Delivery Efficacy of a Cell-Penetrating Peptide by Loading with Carboranes” (Pharmaceutics, 2021):

Tests used:
[1] = Circular dichroism spectroscopy (alpha-helical content, R-value); assay type: physicochemical; details: for % of alpha helix, 50% TFE / % of alpha helix, Phosphate Buffer: CD, calculated per ref 31; for % of alpha helix, 50% TFE: 20 µM peptide in 10 mM phosphate buffer (pH 7.0) with 50% TFE (v/v); for % of alpha helix, Phosphate Buffer / R-value, Phosphate Buffer: 20 µM peptide in 10 mM phosphate buffer (pH 7.0); for R-value, Phosphate Buffer / R-value, 50% TFE: ratio between the molar ellipticity values at 222 and 208 nm; for R-value, 50% TFE: 20 µM peptide in 10 mM phosphate buffer (pH 7.0) with 50% TFE
Experimental: Conjugates were dissolved in 10 mM phosphate buffer (pH 7.0), either alone or supplemented with 50% TFE (v/v), to a final concentration of 20 µM. CD spectra of all conjugates were recorded from 180–260 nm (0.5 nm intervals) on a J-715 spectropolarimeter (JASCO, Pfungstadt, Germany) in an N2 atmosphere.
To find out more, we performed CD spectroscopy for all peptides solved either in phosphate buffer or in phosphate buffer supplemented with trifluoroethanol (TFE), respectively. All conjugates and sC18 adopted an alpha-helix, when present in phosphate buffer with TFE (Figure S20). On the other hand, when CB-conjugates were solved in phosphate buffer only (Figure 1C), some of them directly formed distinct secondary structures. […] Taking this observation into account, we concluded that the number of CB moieties actually promoted the formation of alpha-helical structures. This effect might be further explained by the helical wheel projection of each conjugate showing that the hydrophobic face of the peptide was clearly enlarged when three or more CB units were attached (see Figure S21). […]

[2] = tested on: human red blood cells; assay: Hemolysis assay; assay type: cell-based; details: human RBCs 5% (v/v in PBS), 37 °C, up to 25 µM peptide, absorption at 560 nm, normalized to Triton-x-100 control, triplicate, n = 2
Experimental: Human red blood cells were washed five times with PBS (4 °C, 3000× g, 5 min) and diluted to 5% (v/v in PBS). In total, 100 µL of this solution were transferred into a fresh 96-well plate. In total, 50 µL of peptide solution were added and gently resuspended. Red blood cells were incubated for either 1 or 24 h at 37 °C and 5% CO2, respectively. In total, 50 µL of 10% Triton-x-100 were added 10 min prior to the end of the incubation time and served as a positive control. After incubation, cells were centrifuged (r.t., 2500× g, 3 min). The supernatant was carefully transferred into a fresh 96-well plate and the absorption at 560 nm was measured on a Tecan infinite M200 plate reader (Tecan Group AG, Männedorf, Switzerland). The measured absorption referred to the hemoglobin concentration.
Next, we incubated human red blood cells (RBCs) with different concentrations of CB-sC18 conjugates at 37 °C for 1 or 24 h, respectively. Since their cell membranes are mainly composed of neutral lipids, RBCs serve as an excellent biological model for the lytic activity of a peptide. […] For sC18, this agreed with the detected low activity when in contact with zwitterionic LUVs. […] The same activity profile was observed when incubating peptide conjugates with RBCs for only one hour (Figure S30), whereas the effects started at concentrations higher than 5 µM. […]

[3] = Critical micelle concentration (CMC) determination by UV-VIS; assay type: physicochemical; details: peptide in water, 1–200 µM; UV absorbance at 255 nm plotted against logarithm of peptide concentration, intersection point of two lines
Experimental: Peptide conjugates were dissolved in water and different concentrations (1–200 µM) were prepared. UV-VIS spectra ranging from 200–700 nm were recorded using a 1 cm path length quartz cuvette in a Spectroquant Pharo 300 photometer (Merck, Darmstadt, Germany). The absorbance at 255 nm was plotted against the logarithm of the peptide concentration. The intersection point of two lines was determined as CMC.
Since this effect was obviously dependent on the hydrophobic nature of the conjugates, we were then interested in whether they would also self-assemble and form nanostructures, such as micelles or fibrils. An easy to apply and fast method makes use of changes in spectroscopic properties associated with micelle formation. For this, one measures the UV absorbance at a specific wavelength as a function of the concentration. Because aggregates like micelles and free molecule species contribute to a different extent to the absorbed UV light, an abrupt change of the slope occurs above a certain point. The corresponding concentration is defined as the critical micelle concentration (CMC). We measured the UV-VIS spectra of all CB-sC18 conjugates and observed for all an additional concentration-dependent maximum at 255 nm (Figure 1A,B and Table 2), whereas this maximum was not detected for meta-carborane-1-carboxylic acid (Figure S14) or sC18 alone (Figure S15).
Thus, we hypothesized this maximum as evidence for a possible self-assembly, and by plotting the absorbance at 255 nm against the logarithm of the peptide concentration, we assigned the intersection point as CMC.

[4] = tested on: HeLa cells; assay: Cell viability assay (resazurin); assay type: cell-based; details: 37 °C, serum-free medium, 125 nM–100 µM, relative to untreated cells
Experimental: In total, 17.000 HeLa cells per well were seeded onto 96-well plates (Sarstedt, Nümbrecht, Germany). After confluency of 80–90% was reached, the growth medium was removed, and cells were incubated with 100 µL of peptide solution of different concentrations (125 nM–100 μM in serum-free medium) for 24 h at 37 °C. For a positive control, cells were treated with 70% EtOH for 10 min. Cells were washed with serum-free medium and incubated with 10% (v/v) resazurin (Sigma-Aldrich, Merck group: Darmstadt, Germany) in serum-free medium for 1.5 h at 37 °C. Cell viability was determined by measurement of the resorufin product at 595 nm (λex = 550 nm) on a Tecan infinite M200 plate reader (Tecan Group AG, Männedorf, Switzerland). Viability was calculated from the fluorescence values of treated cells in relation to untreated cells.

[5] = CF-leakage assay, zwitterionic LUVs; details: 1 µM peptide, 25 °C, 90 min; fluorescence, normalized to Triton x-100; duplicate, n = 2
Experimental: (§1) Large unilamellar vesicles (LUVs) were prepared by dissolving different lipids in CHCl3, to reach the desired compositions (lipids were purchased from Avanti Polar Lipids, Inc., Alabaster, AL, USA). To remove the solvent, the mixture was placed into a round-bottomed flask on ice and the solvent was evaporated under reduced pressure for 20 min at 40 °C and afterwards under vacuum for another 5 min. The dried lipid film was then hydrated with HKS buffer (25 mM HEPES, 150 mM KCl, pH 7.4, 10% sucrose (w/v)), supplemented with 100 mM 5(6)-carboxyfluorescein (CF), and homogenized for 5 min at 45 °C to form liposomes (final concentration: 8 mM). The resulting multilamellar vesicle dispersion underwent 10 freeze/thawing cycles and was passed 21 times through a mini extruder (0.4 µm polycarbonate treck-etch membrane; Avanti Polar Lipids, Inc., Alabaster, AL, USA). External CF was removed by size exclusion chromatography (PD10 column, GE Healthcare, Chicago, IL, USA). Peptides were added to the LUVs and the CF release was monitored by measuring the increased fluorescence intensity on a plate reader (Biotek, Winooski, VT, USA). […]
(§2) Our results thus far inspired us to investigate how the novel CB-conjugates would perform in a lipid environment. […] Both lipid systems were additionally loaded with CF in order to monitor membrane leakage via fluorescence dye outflow.

[6] = tested on: HeLa cells; assay: Cellular uptake by flow cytometry; assay type: cell-based; details: 1 µM CF-labeled peptide, serum-free medium, 30 min, 37 °C, triplicate, n = 3
Experimental: HeLa cells were seeded onto 24-well plates (Sarstedt, Nümbrecht, Germany, 100,000 cells per well, respectively). After reaching 80–90% confluency, medium was removed, and cells were incubated with 1 µM CF-labeled peptide solution in serum-free medium for either 30 min or 2 h at 37 °C. The peptide solution was removed, cells were washed twice with PBS, and trypsinized for 5 min. Detached cells were resuspended in full medium (phenol red free) and afterwards analyzed using a guava easycyte HT flow cytometer (Merck, Darmstadt, Germany).

[7] = CF-leakage assay, negatively charged LUVs; details: 1 µM peptide, 25 °C, 90 min; fluorescence, normalized to Triton x-100; duplicate, n = 2
Experimental: as §1, §2

Substance | % of alpha helix, 50% TFE [1] | % of alpha helix, Phosphate Buffer [1] | R-value, Phosphate Buffer [1] | R-value, 50% TFE [1] | CMC [3] | Cellular uptake into HeLa cells, 30 min [6] | Hemolytic activity towards RBCs, 24 h [2] | Cytotoxicity towards HeLa cells, 24 h [4] | CF release (leakage) from zwitterionic LUVs [5] | CF release (leakage) from negatively charged LUVs [7]
KK‐LLIILRRRIRKQAHAHSK [CB2-pVEC, pVEC conjugate bearing two meta-carborane clusters] | 51.36% | 20.41% | 0.84 | 0.82 | – | – | – | – | – | –
K‐LLIILRRRIRKQAHAHSK [CB1-pVEC, pVEC conjugate bearing one meta-carborane cluster] | 44.28% | 17.72% | 0.57 | 0.82 | – | – | – | – | – | –
KK-GLRKRLRKFRNKIKEK [CB2-sC18, sC18 conjugate bearing two meta-carborane clusters] | 60.49% | 5.45% | – | 0.89 | – | – | able to lyse RBCs | – | – | –
meta-carborane-1-carboxylic acid [reference compound] | – | – | – | – | – | – | – | nearly no cytotoxicity | – | –
KKK‐LLIILRRRIRKQAHAHSK [CB3-pVEC, pVEC conjugate bearing three meta-carborane clusters] | 65.76% | 16.98% | 0.99 | 0.82 | – | – | – | – | – | –

Further lines, with some results ahead:

% of alpha helix, 50% TFE [1] | % of alpha helix, Phosphate Buffer [1] | R-value, Phosphate Buffer [1] | R-value, 50% TFE [1] | CMC [3] | Cellular uptake into HeLa cells, 30 min [6] | Substance | Hemolytic activity towards RBCs, 24 h [2] | Cytotoxicity towards HeLa cells, 24 h [4] | CF release (leakage) from zwitterionic LUVs [5] | CF release (leakage) from negatively charged LUVs [7]
56.10% | 16.68% | 0.56 | 0.88 | 44.46 ± 1.14 µM | – | KKK-GLRKRLRKFRNKIKEK [CB3-sC18, sC18 conjugate bearing three meta-carborane clusters] | – | – | – | –
59.84% | 22.59% | 0.92 | 0.84 | – | – | KKKK‐LLIILRRRIRKQAHAHSK [CB4-pVEC, pVEC conjugate bearing four meta-carborane clusters] | – | – | – | –
45.48% | 22.96% | 0.79 | 0.79 | – | – | CB‐KKKK‐LLIILRRRIRKQAHAHSK [CB5-pVEC, pVEC conjugate bearing five meta-carborane clusters] | – | – | – | –
48.60% | 12.18% | 0.37 | 0.73 | – | – | LLIILRRRIRKQAHAHSK [pVEC, VE-cadherin-derived cell-penetrating peptide, reference compound] | – | – | – | –
50.15% | 21.09% | 0.87 | 0.92 | 44.37 ± 1.16 µM | decreased again | CB-KKKK-GLRKRLRKFRNKIKEK [CB5-sC18, sC18 conjugate bearing five meta-carborane clusters] | – | – | same leakage profile as CB1-sC18 | increased outflow of CF
